Experimental data: patent publication US20250051277A1, “DELIVERY OF THERAPEUTIC ALKALOID COMPOUNDS” (Sensorium Therapeutics, Inc., priority 2021, published 2025)
Where two headings read alike, the source gives them in different places.

Legend:
[1] = Plasma Stability Assay of Example A3, human plasma; conditions: 5 μM, 37° C., % of prodrug compound remaining
[2] = type: physicochemical; conditions: DI water, 25° C., 0.5 mM
[3] = Plasma Stability Assay of Example A3, mouse plasma; conditions: 5 μM, 37° C., % of prodrug compound remaining
[4] = type: physicochemical; conditions: SGF with pepsin, pH 1.5, 37° C., 0.5 mM
[5] = 5 μM
[6] = 10 μM
Protocol: (§1) 50 μL aliquots of positive controls and test compounds spiked into rat or human plasma (n=2) were added to a pre-warmed plate (37° C.) and shaken at 50 rpm. At each respective time point, the reaction was stopped by adding 500 μL of acetonitrile containing internal standards (100 nM aprozolam, 200 nM caffeine, 100 nM tolbutamide). All samples were vortexed for 10 minutes, followed by centrifugation at 3,220 g for 30 minutes to precipitate proteins. 100 μL of the supernatant is transferred to a new plate. The supernatant will be diluted with ultrapure water according to the LC-MS signal response and peak shape.

[7] = 10 μM; remark: listed apart in the source
Protocol: as §1

Row | Structure (SMILES) | Human Plasma Prodrug (%) ([1]; 0 min) | Human Plasma Prodrug (%) ([1]; 15 min) | Human Plasma Prodrug (%) ([1]; 30 min) | Human Plasma Prodrug (%) ([1]; 60 min) | Human Plasma Prodrug (%) ([1]; 120 min) | Human Plasma Prodrug (%) ([1]; 240 min) | Mouse Plasma Prodrug (%) ([3]; 0 min) | Mouse Plasma Prodrug (%) ([3]; 15 min) | Prodrug (%) remaining, Rat Plasma ([6]; 0 h) [%] | Prodrug (%) remaining, Rat Plasma ([6]; 10 min) [%] | Prodrug (%) remaining, Rat Plasma ([6]; 0.5 h) [%] | Prodrug (%) remaining, Rat Plasma ([6]; 1 h) [%] | Prodrug (%) remaining, Rat Plasma ([6]; 2 h) [%] | Prodrug (%) remaining, Rat Plasma ([6]; 4 h) [%] | Prodrug (%) remaining, Human Plasma ([7]; 0 h) [%] | Prodrug (%) remaining, Human Plasma ([7]; 10 min) [%] | Prodrug (%) remaining, Human Plasma ([7]; 0.5 h) [%] | Prodrug (%) remaining, Human Plasma ([7]; 1 h) [%] | Prodrug (%) remaining, Human Plasma ([7]; 2 h) [%] | Prodrug (%) remaining, Human Plasma ([7]; 4 h) [%] | also measured
1 | COc1ccc([C@@]23CCC(OC(=O)C(c4ccccc4)c4ccccc4)=C[C@@H]2N(C)CC3)cc1OC [Compound 306, [(3aS,7aS)-3a-(3,4-dimethoxyphenyl)-1-methyl-3,4,5,7a-tetrahydro-2H-indol-6-yl]2,2-diphenylacetate] | 100.0 | 89.5 | 75.2 | 53.7 | 32.4 | 13.8 | 100.0 | 6.2 |  |  |  |  |  |  |  |  |  |  |  |  | Condition 2 Conversion (%) ([2]; time 1 min): 0%; Condition 2 Conversion (%) ([2]; time 5 min): 0%; Condition 2 Conversion (%) ([2]; time 30 min): 0%; Condition 2 Conversion (%) ([2]; time 1 h): 0%; Condition 2 Conversion (%) ([2]; time 4 h): 0%; Condition 2 Conversion (%) ([2]; time 24 h): 0%; Mouse Plasma Prodrug (%) ([3]; 60 min): 1.6%; Mouse Plasma Prodrug (%) ([3]; 120 min): 0.4%; Mouse Plasma Prodrug (%) ([3]; 240 min): 0.1%; Condition 1 Conversion (%) ([4]; time 1 min): 0%; Condition 1 Conversion (%) ([4]; time 5 min): 0%; Condition 1 Conversion (%) ([4]; time 30 min): 0%; Condition 1 Conversion (%) ([4]; time 1 h): 0%; Condition 1 Conversion (%) ([4]; time 4 h): 0%; Condition 1 Conversion (%) ([4]; time 24 h): 0%
2 | COc1ccc([C@@]23CCC(OC(=O)c4cccc(N(C)C)c4)=C[C@@H]2N(C)CC3)cc1OC [Compound 307, [(3aS,7aS)-3a-(3,4-dimethoxyphenyl)-1-methyl-3,4,5,7a-tetrahydro-2H-indol-6-yl]3-(dimethylamino)benzoate] | 100.0 | 88.5 | 87.6 | 83.0 | 71.1 | 57.5 | 100.0 | 18.1 |  |  |  |  |  |  |  |  |  |  |  |  | Mouse Plasma Compound 001 (%) ([5]; 15 min): 73.4%; Mouse Plasma Compound 001 (%) ([5]; 30 min): 81.1%; Mouse Plasma Compound 001 (%) ([5]; 60 min): 86.3%; Mouse Plasma Compound 001 (%) ([5]; 120 min): 79.9%; Mouse Plasma Compound 001 (%) ([5]; 240 min): 79.0%; Mouse Plasma Prodrug (%) ([3]; 30 min): 3.8%; Mouse Plasma Prodrug (%) ([3]; 60 min): 0.1%; Mouse Plasma Prodrug (%) ([3]; 120 min): 0.0%; Mouse Plasma Prodrug (%) ([3]; 240 min): 0.0%
3 | COc1ccc([C@@]23CCC(OC(=O)c4ccc(C(F)(F)F)cc4)=C[C@@H]2N(C)CC3)cc1OC [Compound 310] | 100.0 | 89.9 | 84.5 | 77.3 | 63.4 | 35.1 | 100.0 | 0.4 |  |  |  |  |  |  |  |  |  |  |  |  | Mouse Plasma Prodrug (%) ([3]; 30 min): 0.1%; Mouse Plasma Prodrug (%) ([3]; 60 min): 0.1%; Mouse Plasma Prodrug (%) ([3]; 120 min): 0.1%; Mouse Plasma Prodrug (%) ([3]; 240 min): 0.1%
4 | COc1ccc([C@@]23CCC(OC(=O)c4ccc(F)cc4)=C[C@@H]2N(C)CC3)cc1OC [Compound 353, (3aS,7aS)-3a-(3,4-dimethoxyphenyl)-1-methyl-2,3,3a,4,5,7a-hexahydro-1H-indol-6-yl4-fluorobenzoate] | 100 | 95.4 | 90.1 | 79.7 | 55.3 | 39.6 | 100 | 0 |  |  |  |  |  |  |  |  |  |  |  |  | Mouse Plasma Compound 001 (%) ([5]; 0 min): 47.7%; Mouse Plasma Compound 001 (%) ([5]; 15 min): 55%; Mouse Plasma Compound 001 (%) ([5]; 30 min): 51.6%; Mouse Plasma Compound 001 (%) ([5]; 60 min): 50.6%; Mouse Plasma Compound 001 (%) ([5]; 120 min): 46.4%; Mouse Plasma Compound 001 (%) ([5]; 240 min): 29.3%; Mouse Plasma Prodrug (%) ([3]; 30 min): 0%; Mouse Plasma Prodrug (%) ([3]; 60 min): 0%; Mouse Plasma Prodrug (%) ([3]; 120 min): 0%; Mouse Plasma Prodrug (%) ([3]; 240 min): 0%
5 | CCC(CC)C(=O)OC1=C[C@@H]2N(C)CC[C@]2(c2ccc(OC)c(OC)c2)CC1 [Compound 426, (3aS,7aS)-3a-(3,4-dimethoxyphenyl)-1-methyl-2,3,3a,4,5,7a-hexahydro-1H-indol-6-yl2-ethylbutanoate] |  |  |  |  |  |  |  |  | 100.0 | 70.2 | 33.2 | 9.5 | 0.9 | 0.1 | 100.0 | 87.1 | 80.3 | 79.2 | 73.6 | 66.4 | 
6 | CCCC(CCC)C(=O)OC1=C[C@@H]2N(C)CC[C@]2(c2ccc(OC)c(OC)c2)CC1 [Compound 427, (3aS,7aS)-3a-(3,4-dimethoxyphenyl)-1-methyl-2,3,3a,4,5,7a-hexahydro-1H-indol-6-yl2-propylpentanoate] |  |  |  |  |  |  |  |  | 100.0 | 93.6 | 73.4 | 43.9 | 16.0 | 2.3 | 100.0 | >99 | 96.6 | 96.9 | 95.5 | 91.2 | 
7 | CCC(C)(C)C(=O)OC1=C[C@@H]2N(C)CC[C@]2(c2ccc(OC)c(OC)c2)CC1 [Compound 428, (3aS,7aS)-3a-(3,4-dimethoxyphenyl)-1-methyl-2,3,3a,4,5,7a-hexahydro-1H-indol-6-yl2,2-dimethylbutanoate] |  |  |  |  |  |  |  |  | 100.0 | 90.3 | 69.9 | 41.7 | 18.1 | 3.9 | 100.0 | 82.9 | 74.5 | 69.1 | 56.8 | 46.0 | 
8 | CCCC(C)(C)C(=O)OC1=C[C@@H]2N(C)CC[C@]2(c2ccc(OC)c(OC)c2)CC1 [Compound 429, (3aS,7aS)-3a-(3,4-dimethoxyphenyl)-1-methyl-2,3,3a,4,5,7a-hexahydro-1H-indol-6-yl2,2-dimethylpentanoate] |  |  |  |  |  |  |  |  | 100.0 | 90.4 | 83.9 | 71.9 | 50.8 | 26.2 | 100.0 | >99 | 96.3 | 95.3 | 91.8 | 84.6 | 
9 | CCC(C)(CC)C(=O)OC1=C[C@@H]2N(C)CC[C@]2(c2ccc(OC)c(OC)c2)CC1 [Compound 430, (3aS,7aS)-3a-(3,4-dimethoxyphenyl)-1-methyl-2,3,3a,4,5,7a-hexahydro-1H-indol-6-yl2-ethyl-2-methylbutanoate] |  |  |  |  |  |  |  |  | 100.0 | 98.2 | 98.3 | 97.1 | 94.1 | 92.8 | 100.0 | >99 | >99 | >99 | >99 | 95.9 | 
10 | COc1ccc([C@@]23CCC(OC(=O)CC(C)(C)C)=C[C@@H]2N(C)CC3)cc1OC [Compound 431, (3aS,7aS)-3a-(3,4-dimethoxyphenyl)-1-methyl-2,3,3a,4,5,7a-hexahydro-1H-indol-6-yl3,3-dimethylbutanoate] |  |  |  |  |  |  |  |  | 100.0 | 74.5 | 45.7 | 16.5 | 2.3 | 0.2 | 100.0 | 82.1 | 69.0 | 62.8 | 52.6 | 37.4 | 
